The assay concerns the target Nitric oxide synthase 1 (Homo sapiens, UniProt P29475).
Nitric oxide synthase 1, sequence (P29475 whole entry): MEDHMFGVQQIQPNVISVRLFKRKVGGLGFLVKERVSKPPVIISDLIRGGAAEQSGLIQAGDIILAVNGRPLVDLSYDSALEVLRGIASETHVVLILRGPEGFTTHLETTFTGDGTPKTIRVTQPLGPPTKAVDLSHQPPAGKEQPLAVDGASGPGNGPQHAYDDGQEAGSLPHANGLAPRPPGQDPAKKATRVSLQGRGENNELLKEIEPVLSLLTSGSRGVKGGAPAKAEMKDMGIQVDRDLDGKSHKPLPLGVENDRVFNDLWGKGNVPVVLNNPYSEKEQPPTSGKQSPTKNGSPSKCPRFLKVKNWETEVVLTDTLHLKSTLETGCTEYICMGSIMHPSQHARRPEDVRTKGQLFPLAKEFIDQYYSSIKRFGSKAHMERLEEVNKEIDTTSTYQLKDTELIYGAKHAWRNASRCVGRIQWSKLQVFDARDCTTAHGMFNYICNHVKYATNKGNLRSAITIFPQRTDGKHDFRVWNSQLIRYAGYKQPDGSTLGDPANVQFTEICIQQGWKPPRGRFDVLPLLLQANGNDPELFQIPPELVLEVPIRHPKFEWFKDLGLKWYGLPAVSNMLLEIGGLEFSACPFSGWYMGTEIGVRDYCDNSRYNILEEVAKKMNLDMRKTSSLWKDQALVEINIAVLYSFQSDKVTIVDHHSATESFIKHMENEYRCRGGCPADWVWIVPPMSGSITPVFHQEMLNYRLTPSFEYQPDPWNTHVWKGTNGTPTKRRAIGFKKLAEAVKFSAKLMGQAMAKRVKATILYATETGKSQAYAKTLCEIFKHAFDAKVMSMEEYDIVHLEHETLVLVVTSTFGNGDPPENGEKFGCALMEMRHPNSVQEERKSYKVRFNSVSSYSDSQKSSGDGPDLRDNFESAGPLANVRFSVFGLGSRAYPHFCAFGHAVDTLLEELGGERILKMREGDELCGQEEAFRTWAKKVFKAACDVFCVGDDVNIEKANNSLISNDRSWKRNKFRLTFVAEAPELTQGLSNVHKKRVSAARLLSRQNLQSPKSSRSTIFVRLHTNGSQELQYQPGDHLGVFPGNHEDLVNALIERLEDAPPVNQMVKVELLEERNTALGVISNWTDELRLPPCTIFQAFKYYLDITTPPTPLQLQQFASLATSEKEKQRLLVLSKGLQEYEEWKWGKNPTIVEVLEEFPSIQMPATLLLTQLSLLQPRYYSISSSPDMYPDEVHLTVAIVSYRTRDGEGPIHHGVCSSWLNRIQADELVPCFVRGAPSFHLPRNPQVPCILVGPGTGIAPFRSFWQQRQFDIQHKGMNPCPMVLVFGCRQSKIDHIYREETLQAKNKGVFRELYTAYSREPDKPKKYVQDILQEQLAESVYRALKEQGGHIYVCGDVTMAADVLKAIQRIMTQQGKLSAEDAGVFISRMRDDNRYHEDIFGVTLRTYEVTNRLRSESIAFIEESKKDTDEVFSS
Description: Inhibition of nNOS assessed as conversion of L-[3H]arginine to L-[3H]citrulline
Usually Ki stands for the equilibrium dissociation constant of an inhibitor or competing ligand from its target. Low readings indicate tighter binding, high ones weaker binding. In turn, `C=CCC(=N)NCCC[C@H](N)C(=O)O` registered an inhibition constant (Ki) of 0.1 µM.

Consider `N=C(N)SCCc1cccc(CCSC(=N)N)c1`, for which the Ki was 0.25 µM.

Turning to `O=C(Cn1ccnc1)c1ccc([N+](=O)[O-])cc1`, the Ki worked out at 105 µM.

In turn, `NC(=O)[C@@H]1C[C@@H](NC(=O)[C@@H](N)CCC/N=C(\N)N[N+](=O)[O-])CN1` yielded an inhibition constant (Ki) of 0.1 µM.

Take `c1ccc(-n2ccnc2)cc1`: the Ki is 430 µM.

Take `NC1=NCCS1`: the Ki worked out at 0.41 µM.

The compound `CCCC(=N)NCCC[C@H](N)C(=O)O` displayed a Ki of 5.3 µM.

Turning to `N=C(NCC1CC1)n1cccn1`, affinity was put at a Ki of 10 µM.

Turning to `N=C(N)SCCc1ccc(CCSC(=N)N)cc1`, the Ki was determined as 0.016 µM.

Compound `NCCCC/N=C(\N)n1cccn1` yielded a Ki of 6 µM.

`N[C@@H](CCCCCCc1cnc[nH]1)C(=O)O` displayed a Ki of 150 µM.

Regarding `CNC(=N)NN`, the affinity, expressed as Ki, was 14 µM.

In turn, `Cc1nccn1CC(=O)c1ccc([N+](=O)[O-])cc1` displayed a Ki of 74 µM.

Consider `CC(=N)Nc1cccc(CNO)c1`, for which affinity was put at a Ki of 2.1 µM.

With `N[C@@H](CCCc1cnc[nH]1)C(=O)O`, the Ki is 2 µM.

`N[C@@H](CCCCCc1cncn1-c1ccccc1)C(=O)O` came in with a Ki of 70 µM.

Consider `Cc1nc(N)sc1C`, for which the Ki was determined as 0.38 µM.

With `Cc1cc(C)n(C(=N)N)n1`, the Ki is 350 µM.

The compound `CC(C)(C)SC(=N)N` registered a Ki of 0.62 µM.

`Cc1cnn(C(=N)N)c1` showed a Ki of 12 µM.

Regarding `Brc1ccc(OCCCCn2ccnc2)cc1`, the Ki turned out to be 32 µM.

`CC(=N)Nc1cccc(CCN)c1` showed an inhibitory constant (Ki) of 1 µM.

As to `CC(=N)Nc1cccc(N)c1`, affinity was put at a Ki of 14 µM.

In turn, `N=C(N)SCCN` registered a Ki of 1.8 µM.

`CCC/N=C(\N)n1cccn1` displayed a Ki of 3 µM.

The compound `c1ccc(-c2ccc(CCn3ccnc3)cc2)cc1` came in with a Ki of 175 µM.

For `Cc1ccn(C(=N)N)n1`, the Ki was 8 µM.

As for `CC(=N)Nc1cccc(C(=N)N)c1`, the affinity corresponds to a Ki of 0.57 µM.

For `CC(=N)Nc1cccc(CN=C(C)N)c1`, the Ki stood at 0.37 µM.

Take `CCCCC/N=C(\N)n1cccn1`: the affinity corresponds to a Ki of 60 µM.

Compound `N[C@@H](CCCCCc1cnc[nH]1)C(=O)O` returned an inhibition constant (Ki) of 2 µM.

Regarding `O=C(Cn1ccnc1)c1ccccc1[N+](=O)[O-]`, the Ki stood at 375 µM.

`Brc1cccc(OCCCCn2ccnc2)c1` displayed a Ki of 60 µM.

The compound `Brc1ccc(OCCn2ccnc2)cc1` registered a Ki of 125 µM.

With `FC(F)(F)c1ccc(OCCn2ccnc2)cc1`, affinity was put at a Ki of 45 µM.

Compound `CC(=N)Nc1cccc(CNCc2cccc(C(C)=N)c2)c1` returned a Ki of 0.042 µM.

Take `CC(=N)Nc1cccc(CSC(=N)N)c1`: the Ki came out at 0.36 µM.

`N=C(Nc1cccc(CN)c1)n1cccn1` came in with a Ki of 2 µM.

Take `CC(=N)Nc1cccc(NC(C)=N)c1`: the affinity corresponds to a Ki of 1.5 µM.

In turn, `OC(Cn1ccnc1)c1ccc(-c2ccccc2)cc1` (centres undefined) had an inhibition constant Ki of 125 µM.

In turn, `CCCC/N=C(\N)n1cccn1` showed a Ki of 14 µM.

For `CC(C)SC(=N)N`, affinity was put at a Ki of 0.037 µM.

In the case of `CCCSC(=N)N`, affinity was put at a Ki of 0.63 µM.

Compound `N=C(N)SCCc1ccccc1` returned a Ki of 0.8 µM.

For the compound `CC(C)C/N=C(\N)n1cccn1`, the Ki is 45 µM.

Compound `FC(F)(F)c1ccc(OCCCn2ccnc2)cc1` had a Ki of 75 µM.

As for `Nc1nc(CCc2ccccc2)cs1`, the Ki turned out to be 0.89 µM.

In the case of `Brc1ccc(OCCCCCCn2ccnc2)cc1`, affinity was put at a Ki of 57 µM.

`Brc1ccc(OCCCn2ccnc2)cc1` registered a Ki of 125 µM.

Compound `N[C@@H](CCCCc1cnc[nH]1)C(=O)O` displayed an inhibitory constant (Ki) of 65 µM.

`N[C@@H](CCc1cnc[nH]1)C(=O)O` returned a Ki of 170 µM.

As to `N[C@@H](CCCc1cncn1-c1ccccc1)C(=O)O`, affinity was put at a Ki of 80 µM.

With `N[C@@H](CCCCc1cncn1-c1ccccc1)C(=O)O`, the affinity corresponds to a Ki of 100 µM.

In the case of `CNCc1cccc(NC(C)=N)c1`, the inhibition constant Ki came to 0.056 µM.

The compound `CC(=N)Nc1cccc(S(N)(=O)=O)c1` showed a Ki of 29 µM.

`N=C(N)SCc1ccc(CSC(=N)N)cc1` yielded a Ki of 0.1 µM.

Take `N=C(N)SCCCc1cccc(CCCSC(=N)N)c1`: the Ki amounted to 4.8 µM.

In turn, `Cc1cnc(N)s1` gave a Ki of 1.1 µM.

For `CC(=N)Nc1cccc(CN2CCOCC2)c1`, the affinity, expressed as Ki, was 2.8 µM.

`N=C(NC1CC1)n1cccn1` registered a Ki of 50 µM.

As for `CC(=N)Nc1cccc(CN(C)C)c1`, affinity was put at a Ki of 0.17 µM.

Regarding `FC(F)(F)c1ccc(OCCCCn2ccnc2)cc1`, the Ki came out at 94 µM.

In turn, `CC(=N)Nc1cccc(NN)c1` displayed an inhibition constant Ki of 1.1 µM.

For `Brc1ccccc1OCCCCn1ccnc1`, affinity was put at a Ki of 180 µM.

In turn, `N=C(N)SCCCc1ccccc1` registered a Ki of 14 µM.

In turn, `Cc1csc(N)n1` gave a Ki of 10 µM.

On to `N=C(NN)Nc1ccccc1`, for which affinity was put at a Ki of 4 µM.

Regarding `CCNC(=N)NN`, the inhibition constant Ki stood at 1 µM.

Take `CCC(=N)NCCC[C@H](N)C(=O)O`: affinity was put at a Ki of 3 µM.

Regarding `CC(C)=CCSC(=N)N`, the Ki was 2 µM.

`FC(F)(F)c1ccc(OCCCCCCn2ccnc2)cc1` returned a Ki of 35 µM.

As to `N=C(NCCC[C@H](N)C(=O)N[C@@H]1CN[C@@H](C(N)=O)C1)N[N+](=O)[O-]`, the Ki was 1.1 µM.

`N=C(NN)NO` came in with a Ki of 0.68 µM.

For the compound `Nc1nccs1` [AMINOTHIAZOLE], the Ki came to 12 µM.

The compound `N=C(N)SCc1ccccc1` [BENZYL CARBAMIMIDOTHIOATE] registered a Ki of 14 µM.

`CCSC(=N)N` [ETHYLISOTHIOUREA] showed a Ki of 0.029 µM.

`c1c[nH]cn1` [IMIDAZOLE]: the Ki worked out at 175 µM.

Regarding `N=C(N)NN` [PIMAGEDINE], the inhibition constant Ki stood at 3.3 µM.

For `N=C(N)n1cccn1` [PRAXADINE], the Ki came to 0.4 µM.

Source of the values: ChEMBL document CHEMBL1150384, “Design, synthesis, and evaluation of potential inhibitors of nitric oxide synthase” (Bioorg Med Chem, 2008).
